Data taken from patent US10881641B2, “Methods and use of compounds that bind to RelA of NF-kB” (Cedars-Sinai Medical Center, priority 2015, dated 2021).
Entries after “also recorded” stand apart in the source; their conditions may differ.

Tests used:
[1] = test system: triple-negative breast cancer cell lines; experiment: cell proliferation by calorimetric assay (MTT); format: cell-based; details: FIG. 1A
breast cancer cells = experiment: anchorage independent growth assay (colony formation, clonogenic survival); format: cell-based; details: 15 uM CRL1101 added after 24 hours, 14 days, soft agarose, FIG. 1B
Experimental: The effects of CRL1101 on clonogenic survival were analyzed. Base layers consisting of growth medium containing 0.53% low-melting point agarose (Invitrogen) were poured onto 6-well plates and allowed to solidify. Cells were seeded at concentration of 10000/well in triplicate in top layers consisting of growth medium containing 0.32% agarose. After 24 hours, 15, uM of CRL1101 was added. Cells were incubated for 14 days to form visible colonies. The colonies were fixed and stained by 0.05% Crystal violet in 50% methanol.

RelA(p65) = molecular target: T1, RelA(p65) (Homo sapiens, UniProt Q04206); experiment: nuclear localization of RelA by immunofluorescent staining; format: cell-based; details: TNBC cell lines, 20 mM CRL1101 in 1% DMSO, 45 minutes, FIG. 2
T1 construct: endogenous in cells
T1 sequence (Q04206 whole entry): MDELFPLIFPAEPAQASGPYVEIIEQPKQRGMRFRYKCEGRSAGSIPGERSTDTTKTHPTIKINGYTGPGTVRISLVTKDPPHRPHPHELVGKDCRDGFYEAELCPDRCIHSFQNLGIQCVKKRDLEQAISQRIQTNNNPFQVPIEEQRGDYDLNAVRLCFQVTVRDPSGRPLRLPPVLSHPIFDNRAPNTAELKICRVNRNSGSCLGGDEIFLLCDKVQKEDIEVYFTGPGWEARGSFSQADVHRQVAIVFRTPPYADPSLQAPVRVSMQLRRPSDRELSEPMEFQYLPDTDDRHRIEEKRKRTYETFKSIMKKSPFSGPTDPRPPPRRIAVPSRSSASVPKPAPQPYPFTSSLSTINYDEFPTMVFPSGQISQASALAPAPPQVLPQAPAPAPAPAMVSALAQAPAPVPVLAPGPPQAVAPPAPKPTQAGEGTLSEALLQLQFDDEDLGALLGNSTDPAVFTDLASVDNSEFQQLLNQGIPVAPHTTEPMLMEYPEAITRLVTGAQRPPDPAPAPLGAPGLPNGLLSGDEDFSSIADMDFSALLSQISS
Experimental: Cells were grown in Dulbecco's modified Eagle medium supplemented with 10% heat-inactivated fetal calf serum and 1% (w/v) penicillin/streptomycin (all purchased from Mediatech Inc, Manassas, Va., USA). Cells were treated with or without 20 mM of CRL1101 in 1% DMSO. Forty five minutes after treatment, cells were fixed with 4% formaldehyde for 10 min and sequentially treated with 0.1% Triton X 100 for 10 min. Cells were blocked in 1% BSA in PBS for 10 min. cells were incubated with anti-Re/A(p65) antibody (1:150, Abeam, Cambridge, UK) in PBS with 1% BSA overnight at 4° C. and a secondary antibody (1:1000 anti-rabbit Alexa 488, Invitrogen, Carlsbad, Calif., USA) for 1 hr in the dark. Analyses were performed using a microscope (Nikon ECLIPSE Ti-U, Nikon, Tokyo, JAPAN).

MDA-MB-231 cells = experiment: xenograft breast cancer model, tumor growth; format: in vivo, athymic mice; details: 25 mg/kg/day IP for 4 weeks, compared to vehicle, N=6, FIG. 3
Experimental: Mice were administrated 25 mg/kg/day of CRL1101 or vehicle IP, as indicated by arrows. Results are given as mean tumor volume +− s.e. […] N=6. Therapeutic efficacy of CRL1101 was tested in xenograft breast cancer model. Briefly, triple-negative breast cancer cells, MDA-MB-231 were used to grow tumor in athymic mice. Mice were treated with 25 mg/kg/day, IP for 4 weeks. The control group was treated with vehicle.

IC50 ([1]; all the three TNBC cell lines, MTT, read-out: IC50, inhibition of TNBC cell line proliferation): 20 µM | nuclear localization of RelA (RelA(p65)): significantly inhibited
Compound: Cl.O=[N+]([O-])c1cc(S(=O)(=O)CCCN2CCOCC2)ccc1F [CRL1101]
cell proliferation ([1]; breast cancer cells): significantly inhibited | colony formation (breast cancer cells): significantly inhibited | tumor growth (mean tumor volume) (MDA-MB-231 cells): significant reduction in tumor growth; also recorded: significant (p<0.001) compared to vehicle
